US4275065A, “Modulating the immune response with 2-substituted-3-hydroxythiazolo[2,3-b]b e” (American Home Products Corporation, priority 1980, dated 1981)

Key:
[1] = tested on: antibody-secreting plaque-forming splenocytes (IgG and IgM); experiment: Cunningham modification of the Jerne assay (hemolytic plaque technique), IgM and IgG plaques per spleen; type: in vivo, CDF1 (Balb/c × DBA/2) mice; conditions: 100 mg/kg
Procedure: In this example, the compounds of the invention are tested for their effect on antibody-secreting plaque-forming splenocytes (IgG and IgM) in the Cunningham modification of the Jerne assay. This technique is able to detect, in a quantitative manner, antibody producing cells in response to antigen stimulus in the host mouse. For study of […] immune response, sheep erythrocytes (SRBC) are used (as in the present Example), while for humoral immune response, SRBC coupled with pneumococcal polysaccharide is used.
CDF1 (Balb/c × DBA/2) mice are immunized with 0.1 ml. of 10^8 sheep erythrocytes (SRBC) intraperitonially 4-5 days before the assay. The mice are separated into groups, with one group serving as a control and all other groups receiving compounds of the invention. The treated mice are dosed with drug on day one. […] The spleens of the sacrificed mice are excised and washed several times in RPMI 1640 with 10% fetal bovine serum. 100 λ of spleen cells are mixed with a drop of guinea pig complement, four drops of RPMI 1640 and a drop of 25% SRBC in a microtiter plate well and then pipetted into a Cunningham chamber. On day four, for IgM determinations, the chambers are incubated for 30 minutes at 37° C. Antibody, released by the small proportion of active cells, attaches to the surrounding erythrocytes which are lysed by complement leaving a small plaque up to 0.5 mm. in diameter. Since only cells releasing IgM antibody form plaques directly, a "developing" serum must be added to be able to form and view IgG plaques. Thus fifth or sixth day cultured spleen cells are further treated with rabbit antimouse IgG and then incubated for 45 minutes. Both IgM and IgG plaques are counted under a stereomicroscope.
In Table 1 are given the IgM and IgG plaque counts per spleen for mice treated with 6-chloro-2-phenylthiazolo[2,3-b]benzothiazol-3(2H)-one mesoionic didehydro derivative and for the controls:
The assay is repeated using the following compounds of the invention: 2-phenylthiazolo[2,3-b]benzothiazol-3(2H)-one mesoionic didehydro derivative (A), 6-chloro-2-(p-chlorophenyl)-thiazolo[2,3-b]benzothiazol-3(2H)-one mesoionic didehydro derivative (B) and 6-chloro-2-phenylthiazolo[2,3-b]benzothiazol-3(2H)-one mesoionic didehydro derivative (C).

[2] = tested on: thymus gland; experiment: effect on the thymus gland (thymus weight); type: in vivo, BDF1 mice
Procedure: The effect of the compounds of the invention on the thymus gland is measured. BDF1 mice of 18-20 gms. weight are dosed at 150 mg/kg. with 6-chloro-2-phenylthiazolo[2,3-b]benzothiazolo-3(2H)-one mesoionic didehydro derivative for eight consecutive days. The mice are sacrificed on the ninth day, the thymus glands excised and weighed. The excised thymus glands averaged […]. as compared to […]. for the control group. […] The weight loss is also correlated to dose, and the results are as follows:
Using the same technique, the following compounds of the invention were tested: 6-chloro-2-(p-chlorophenyl)thiazolo[2,3-b]benzothiazol-3(2H)-one mesoionic didehydro derivative (A), 2-phenyl-5,6,7,8-tetrahydrothiazolo[2,3-b]benzothiazol-3(2H)-one mesoionic didehydro derivative (B), 2-phenylthiazolo[2,3-b]-benzothiazol-3(2H)-one mesoionic didehydro derivative (C),6-chloro-2-trifluoroacetylthiazolo[2,3-b]benzothiazol-3(2H)-one mesoionic didehydro derivative (D), 6-chloro-3-hydroxy-2-phenylthiazolo[2,3-b]benzothiazolium bromide (E), 7-ethoxy-3-hydroxy-2-phenylthiazolo[2,3-b]benzothiazolium bromide (F), 3-hydroxy-2-phenylthiazolo[2,3-b]benzothiazolium bromide (G), and 3-hydroxy-2-phenyl-5,6,7,8-tetrahydrothiazolo[2,3-b]benzothiazolium bromide (H).

[3] = tested on: adjuvant arthritis (left paw edema); experiment: adjuvant arthritis test, prophylactic peroral administration; type: in vivo, male Lewis strain rats; conditions: prophylactic p.o.
[4] = tested on: established adjuvant arthritis (left paw edema); experiment: established adjuvant arthritis, therapeutic peroral administration; type: in vivo, male Lewis strain rats; conditions: therapeutic p.o., * = p < 0.05
[5] = tested on: delayed hypersensitivity reaction; experiment: guinea pig delayed hypersensitivity assay (PPD); type: in vivo, Male Hartley strain guinea pigs; conditions: 50 mg/kg orally, read 24 hours after challenge, * = p < 0.05
[6] = tested on: autoimmune disease (systemic lupus erythematosus); experiment: autoimmune disease (systemic lupus erythematosus), immunoglobulin determinations, female NZB/W mice; type: in vivo, female NZB/W F1 mice; conditions: A 100 mg/kg, levamisole 25 mg/kg, i.p. twice weekly
Procedure: (§1) The effect of the compounds of the invention on the development and progress of autoimmune disease (systemic lupus erythematosus) in the New Zealand F1 hydrid mouse (NZB×NZW) is evaluated. NZB/W F1 mice are divided into two groups according to sex. […] IgG, IgM and antinuclear antibody determinations are made on pooled samples of serum obtained by capillary bleedings of the suborbital sinus at approximately monthly intervals. The compounds of the invention are suspended in a solution of physiological saline with 0.16% CMC. All dosing is twice weekly intraperitonially. […] Immunoglobulin values from serum samples are compared with the baseline (pretreatment) for each group.

[7] = tested on: autoimmune disease (systemic lupus erythematosus); experiment: autoimmune disease (systemic lupus erythematosus), immunoglobulin determinations, male NZB/W mice; type: in vivo, male NZB/W F1 mice; conditions: A 100 mg/kg, levamisole 25 mg/kg, i.p. twice weekly
Procedure: as §1

[8] = tested on: murine Lewis lung carcinoma; experiment: metastatic spread of murine Lewis lung carcinoma implanted subcutaneously; type: in vivo
Procedure: The ability of the compounds of the invention to influence the growth and metastatic spread of murine Lewis lung carcinoma implanted subcutaneously,is evaluated.
The procedures employed for stock tumor maintenance and transfer, as well as for drug evaluation on the primary tumor, are those found in Cancer Chemotherapy Reports, Vol. 3, No. 2, September 1972, Protocol 1.400. The measurements of metastic spread are made by counting tumor foci on the excised lung under an illuminated magnifying lens or a dissecting microscope, after employment of the Wexler india ink technique (Hilda Wexler, "Accurate Identification of Experimental Pulmonary Metastases", J. Nat. Can. Inst., Volume 36, No. 4, April 1966, pp. 641-643) to accurately identify and count lung metasteses.

[9] = 150 mg/kg, eight days, in words

`[O-]c1c(-c2ccccc2)sc2sc3ccc(Cl)cc3[n+]12` [Example 3, 6-Chloro-2-phenylthiazolo[2,3-b]benzothiazol-3(2H)-one mesoionic didehydro derivative] was tested, and the “IgG plaques, mean (total number of plaques per spleen)” value ([1]; Day 4) was 37,087 plaques per spleen, the “IgM plaques, mean (total number of plaques per spleen)” value ([1]; Day 4) was 63,993 plaques per spleen and the “IgG plaques, mean (total number of plaques per spleen)” value ([1]; Day 6) was 152,745 plaques per spleen. For the same molecule, the “IgM plaques, mean (total number of plaques per spleen)” value ([1]; Day 6) was 39,679 plaques per spleen, the Thymus weight ([2]; 12.5 mg/kg) was 55.3 mg and the Thymus weight ([2]; 50 mg/kg) was 46 mg. The Thymus weight ([2]; 100 mg/kg) was 11.8 mg, the Thymus weight ([2]; 150 mg/kg, eight consecutive days, ninth day) was 21.8 mg and the “Histopathological examination of the treated thymus glands” value [2, 9] was “weight loss to be due solely to the depletion of lymphocytes”. The “size of the cervical, axillary, trachial and inguinal lymph nodes” value [2, 9] was “some reduction in the size”, the Thymus weight ([2]; 200 mg/kg) was 20.5 mg and the “recovery of thymus weight and histopathological status” value ([2]; after resting for three weeks, in words) was “return to normal weight and histopathological status”. For the same molecule, the “Mean % Inhibition of Left Paw Edema” value ([3]; 10 mg/kg) was 32%, the “Mean % Inhibition of Left Paw Edema” value ([3]; 25 mg/kg, * = p < 0.05?) was 41% and the “Mean % Inhibition of Left Paw Edema” value ([3]; 50 mg/kg, * = p < 0.05?) was 63%. The “Mean % Inhibition of Left Paw Edema” value ([4]; 4th day of dosing, 12.5 mg/kg) was 94%, the “Mean % Inhibition of Left Paw Edema” value ([4]; 4th day of dosing, 50 mg/kg) was 67% and the “Mean % Inhibition of Left Paw Edema” value ([4]; 7th day of dosing, 12.5 mg/kg) was 66%. For the same molecule, the “Mean % Inhibition of Left Paw Edema” value ([4]; 7th day of dosing, 50 mg/kg) was 58%, the “Mean % Inhibition of Paw Edema” value ([5]; 6 hours after challenge) was 41% and the “Mean % Inhibition of Paw Edema” value ([5]; 24 hours before challenge) was 43%. The “ANA (antinuclear antibody), Highest Dilution Positive” value (“ANA (antinuclear antibody)” for short) ([6]; 47 Days) was “neg”, the IgG level ([6]; 47 Days) was 234 mg./100 ml and the IgM level ([6]; 47 Days) was 49 mg./100 ml. For the same molecule, the “ANA (antinuclear antibody)” value ([6]; 76 Days) was “neg”, the IgG level ([6]; 76 Days) was 220 mg./100 ml and the IgM level ([6]; 76 Days) was 54 mg./100 ml. The “ANA (antinuclear antibody)” value ([6]; 111 Days) was “neg”, the IgG level ([6]; 111 Days) was 496 mg./100 ml and the IgM level ([6]; 111 Days) was 148 mg./100 ml. For the same molecule, the “ANA (antinuclear antibody)” value ([6]; 154 Days) was “neg”, the IgG level ([6]; 154 Days) was 420 mg./100 ml and the IgM level ([6]; 154 Days) was 108 mg./100 ml. The “IgG Total Change From Baseline” value [6] was -40 mg./100 ml, the “IgM Total Change From Baseline” value [6] was “+44 mg./100 ml” and the IgG level ([6]; Pretreatment) was 460 mg./100 ml. For the same molecule, the IgM level ([6]; Pretreatment) was 64 mg./100 ml, the “ANA (antinuclear antibody)” value ([7]; 47 Days) was “neg” and the IgG level ([7]; 47 Days) was 234 mg./100 ml. For the same molecule, the IgM level ([7]; 47 Days) was 48 mg./100 ml, the “ANA (antinuclear antibody)” value ([7]; 76 Days) was “neg” and the IgG level ([7]; 76 Days) was 240 mg./100 ml. The IgM level ([7]; 76 Days) was 49 mg./100 ml, the “ANA (antinuclear antibody)” value ([7]; 111 Days) was “neg” and the IgG level ([7]; 111 Days) was 240 mg./100 ml. The IgM level ([7]; 111 Days) was 80 mg./100 ml, the “ANA (antinuclear antibody)” value ([7]; 154 Days) was “neg” and the IgG level ([7]; 154 Days) was 324 mg./100 ml. The IgM level ([7]; 154 Days) was 96 mg./100 ml, the “IgG Total Change From Baseline” value [7] was -126 mg./100 ml and the “IgM Total Change From Baseline” value [7] was “+52.5 mg./100 ml”. For the same molecule, the IgG level ([7]; Pretreatment) was 450 mg./100 ml, the IgM level ([7]; Pretreatment) was 43.5 mg./100 ml and the “Average Number of Metastases” value ([8]; 25 mg/kg) was 10.8. For the same molecule, the “Average Number of Metastases” value ([8]; 50 mg/kg) was 15.3, the “Average Number of Metastases” value ([8]; 100 mg/kg) was 38.4 and the “Average Number of Metastases” value ([8]; 150 mg/kg) was 81.3. For the same molecule, the “Average Number of Metastases” value ([8]; 300 mg/kg) was 99.1.
